According to US9867373B2, “Fungicidal composition having synergistic effect” (JIANGSU HUIFENG AGROCHEMICAL CO., LTD., priority 2013, dated 2018):
In brackets after ≈: the same amount, converted by molar mass.

How the values were obtained:
[1] = system: rust pathogens of wheat; assay: whole plant or invertebrate; type: in vivo
[2] = system: downy mildew pathogens of cucumber; assay: Toxicity test on downy mildew pathogens of cucumber (disease index and control effect on whole cucumber plant); type: in vivo; details: for ATI: actual toxicity index
[3] = system: oomycetes; details: background statement; cited from earlier work

Q: For `Fc1ccc([C@]2(Cn3cncn3)O[C@H]2c2ccccc2Cl)cc1` (racemic) [Epoxiconazole, epoxiconazole], which EC50 ([1]; Triticum aestivum) is on record?
A: 5.29 µg/mL (≈ 16 µM)

Q: What does the source list for `O=C(S)c1cccc2nnsc12` [Acibenzolar, acibenzolar]?
A: EC50 ([2]; Table 8, with acibenzolar): 5.38 µg/mL (≈ 27.4 µM); ATI ([2]; Table 8, with acibenzolar): 91.45

Q: Which EC50 ([2]; Table 3, with azoxystrobin) does the source give for `CO/C=C(/C(=O)OC)c1ccccc1Oc1cc(Oc2ccccc2C#N)ncn1` [Azoxystrobin, azoxystrobin] here?
A: 5.82 µg/mL (≈ 14.4 µM)

Q: What about the ATI ([2]; Table 3, with azoxystrobin) of the same compound?
A: 72.34

Q: Which results are given for `CC(C)OC(=O)N[C@H](C(=O)N[C@H](C)c1nc2ccc(F)cc2s1)C(C)C` [Benthiavalicarb-isopropyl, benthiavalicarb-isopropyl]?
A: EC50 ([2]; Cucumis sativus): 5.41 µg/mL (≈ 14.2 µM); ATI ([2]; Table 1, with benthiavalicarb-isopropyl): 60.1

Q: For `Cc1cc(C2CC2)nc(Nc2ccccc2)n1` [Cyprodinil, cyprodinil], which EC50 ([1]; Triticum aestivum) is on record?
A: 5.87 µg/mL (≈ 26.1 µM)

Q: For `CC1COC(Cn2cncn2)(c2ccc(Oc3ccc(Cl)cc3)cc2Cl)O1` (stereo not shown) [Difenoconazole, difenoconazole], which EC50 ([1]; Triticum aestivum) is on record?
A: 5.45 µg/mL (≈ 13.4 µM)

Q: Which ATI ([2]; Table 2, with dimethomorph) does the source give for `COc1ccc(C(=CC(=O)N2CCOCC2)c2ccc(Cl)cc2)cc1OC` [Dimethomorph, dimethomorph] here?
A: 63.9

Q: And the “concentration at which an inhibitory effect is exerted” value [3]?
A: < 0.25 µg/mL

Q: For `N#Cc1sc2c(=O)c3ccccc3c(=O)c=2sc1C#N` [Dithianon, dithianon], which EC50 ([2]; Cucumis sativus) is on record?
A: 5.34 µg/mL (≈ 18 µM)

Q: And the ATI ([2]; Table 5, with dithianon)?
A: 88.39

Q: What does the source list for `CSC1=N[C@@](C)(c2ccccc2)C(=O)N1Nc1ccccc1` [Fenamidone, fenamidone]?
A: EC50 ([2]; Cucumis sativus): 5.12 µg/mL (≈ 16.4 µM); ATI ([2]; Table 4, with fenamidone): 107.62

Q: With `O=[N+]([O-])c1cc(C(F)(F)F)c(Cl)c([N+](=O)[O-])c1Nc1ncc(C(F)(F)F)cc1Cl` [Fluazinam, fluazinam] as the compound, how does the EC50 ([2]; Cucumis sativus) read?
A: 5.19 µg/mL (≈ 11.2 µM)

Q: What about the ATI ([2]; Table 9, with fluazinam) of the same compound?
A: 97.88

Q: Which EC50 ([1]; Triticum aestivum) does the source give for `CC(C)NC(=O)N1CC(=O)N(c2cc(Cl)cc(Cl)c2)C1=O` [Iprodione, iprodione] here?
A: 5.35 µg/mL (≈ 16.2 µM)

Q: Which EC50 ([1]; Table 15, with picoxystrobin) does the source give for `CO/C=C(/C(=O)OC)c1ccccc1COc1cccc(C(F)(F)F)n1` [Picoxystrobin, picoxystrobin] here?
A: 5.68 µg/mL (≈ 15.5 µM)

Q: What about the ATI ([1]; actual toxicity index, Table 15, with picoxystrobin) of the same compound?
A: 87.68

Q: For `OC(Cc1ccccc1Cl)(Cn1nc[nH]c1=S)C1(Cl)CC1` (stereo not shown) [Prothioconazole, prothioconazole], which EC50 ([1]; Triticum aestivum) is on record?
A: 5.12 µg/mL (≈ 14.9 µM)

Q: For `COC(=O)N(OC)c1ccccc1COc1ccn(-c2ccc(Cl)cc2)n1` [Pyraclostrobin, pyraclostrobin], which EC50 ([1]; Triticum aestivum) is on record?
A: 4.98 µg/mL (≈ 12.8 µM)

Q: For `Cc1nc(C(F)(F)F)c(C(=O)Nc2c(Br)cc(OC(F)(F)F)cc2Br)s1` [Thifluzamide, thifluzamide], which EC50 ([1]; Triticum aestivum) is on record?
A: 5.12 µg/mL (≈ 9.7 µM)

Q: For `CON=C(C(=O)OC)c1ccccc1CON=C(C)c1cccc(C(F)(F)F)c1` [Trifloxystrobin, trifloxystrobin], which EC50 ([1]; Triticum aestivum) is on record?
A: 4.75 µg/mL (≈ 11.6 µM)

Q: With `CCC(C)(NC(=O)c1cc(Cl)c(C)c(Cl)c1)C(=O)CCl` (stereo not shown) [Zoxamide, zoxamide] as the compound, how does the EC50 ([2]; Cucumis sativus) read?
A: 5.11 µg/mL (≈ 15.2 µM)

Q: And the ATI ([2]; Table 7, with zoxamide)?
A: 95.69

Q: Which EC50 ([2]; Table 6, with polyoxin) does the source give for polyoxin here?
A: 5.24 µg/mL

Q: And the ATI ([2]; Table 6, with polyoxin)?
A: 89.89
